Here are results for five compounds from PMC10551045 (Journal of the American Chemical Society, 2023).

For orientation: IC50 means the concentration needed to halve the response being measured.

SMILES strings stand for the structures. Where two headings read alike, the source gives them in different places.

In one series the test system is GBM-F. The experiment in a line: cell killing, GBM-F patient-derived GBM CSC line. Conditions: for IC50: read-out: GBM-F IC50. Format: cell-based, human.
For the next series, the system named is GBM-A. The experiment in a line: cell killing, GBM-A patient-derived GBM CSC line. Format: cell-based, human. The note with it: for IC50: read-out: GBM-A IC50.
For series [1], the system named is primary human astrocytes (HA). The series is described as follows: cytotoxicity in control primary human astrocytes. Format: cell-based. The note with it: for IC50: read-out: HA IC50.
The test system of a further series is HT-1080 cells. The experiment in a line: Cell-titer glo cell viability in HT-1080 cells after shRNA RIPK2 knockdown. Format: cell-based. The note with it: HT-1080, RIPK2 shRNA vs control, 24 hours; YM155 4 nM, aYM155 40 nM.
In a further series the test system is IκBα phosphorylation. The experiment in a line: IκBα phosphorylation after NOD2 stimulation with L-18 MDP. The format is cell-based. The note with it: U87EGFRvIII cells, pretreatment 100nM, L-18 MDP stimulation.
The subject of a further series is Casp-1. The series is described as follows: Casp-1 activation in cells. Format: cell-based. The note with it: HT-1080, EGFRvIII amplified U87MG cells and GBM CSCs.
For series [2], the system named is Survivin. The experiment in a line: Western blot of survivin in U87-EGFRvIII cells after shRNA RIPK2 knockdown. Format: cell-based. The note with it: U87MG stably expressing EGFRvIII, 100 nM, 24 hours. Background: Immunoblotting shows a protein as a band on a membrane.
The subject of series [3] is WA09 human ES cell-derived neural progenitor cells (NPC). The series is described as follows: cytotoxicity in control neural progenitor cells. Format: cell-based. Conditions: for IC50: read-out: NPC IC50.
Series [4] deals with T1, recombinant human full-length RIPK2 (Homo sapiens, UniProt O43353). The series is described as follows: in vitro competitive binding, UV-dependent labeling of RIPK2 by cRIPGBM-PAP.
T1 sequence (O43353 whole entry): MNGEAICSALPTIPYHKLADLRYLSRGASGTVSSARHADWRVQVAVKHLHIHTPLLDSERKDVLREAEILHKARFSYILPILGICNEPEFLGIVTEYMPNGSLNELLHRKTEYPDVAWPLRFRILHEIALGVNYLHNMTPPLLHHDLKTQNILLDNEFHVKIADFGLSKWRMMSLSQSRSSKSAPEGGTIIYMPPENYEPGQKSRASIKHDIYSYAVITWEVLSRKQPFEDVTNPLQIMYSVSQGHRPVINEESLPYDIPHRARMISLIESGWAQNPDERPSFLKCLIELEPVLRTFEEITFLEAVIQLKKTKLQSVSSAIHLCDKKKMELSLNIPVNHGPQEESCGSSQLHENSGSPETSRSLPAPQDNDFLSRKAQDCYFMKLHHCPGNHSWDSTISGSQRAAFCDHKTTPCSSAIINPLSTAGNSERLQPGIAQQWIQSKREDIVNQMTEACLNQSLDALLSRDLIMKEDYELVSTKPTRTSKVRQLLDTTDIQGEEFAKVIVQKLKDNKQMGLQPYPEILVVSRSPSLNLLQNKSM
Series [5] concerns control neural cell types. The series is described as follows: cytotoxicity in control neural cell types. The format is cell-based, human. Conditions: read-out: IC50 in control neural cell types.
The subject of series [6] is Survivin. The series is described as follows: Western blot of survivin in HT-1080 cells after shRNA RIPK2 knockdown. Format: cell-based. Conditions: 24 hours.
The test system of the next series is U118MG. The series is described as follows: cytotoxicity in hypo-MGMT methylated cell line. Format: cell-based. The note with it: read-out: U118MG IC50.
A further series concerns U87-EGFRvIII cells. The experiment in a line: Cell-titer glo cell viability in U87-EGFRvIII cells after shRNA knockdown. Format: cell-based. The note with it: for IC50: read-out: 24-hour IC50 value; for cell viability on loss of RIPK2 / sensitivity following shRNA-mediated RIPK1 knockdown: U87-EGFRvIII; for cell viability on loss of RIPK2: RIPK2 shRNA vs control, YM155 20 nM, aYM155 160 nM; for sensitivity following shRNA-mediated RIPK1 knockdown: induced tumor cell death.

A short description of series [7]: brain tissue distribution pharmacokinetic study. Conditions: 10 mg/kg, P.O., CD-1 mice.
A further series deals with LN229. The series is described as follows: cytotoxicity in hyper-MGMT methylated cell line. Format: cell-based.
Series [8] relates to primary human lung fibroblasts (HLF). The series is described as follows: cytotoxicity in control primary human lung fibroblasts. Format: cell-based. The note with it: read-out: HLF IC50.
For a further series, the system named is Casp-3/7. The series is described as follows: Caspase-Glo 3/7 assay in HT-1080 cells. The format is cell-based. The note with it: for Casp3/7 activation on SLC35F2 shRNA knockdown: HT-1080; for Casp-3/7 activation in RIPK2 shRNA knockdown cells vs non-targeting control: HT-1080, 8 hours; for Casp-3/7 activation: HT-1080, 8 hours of treatment.
Series [9] relates to HT-1080 fibrosarcoma cells. The experiment in a line: cytotoxicity in HT-1080 fibrosarcoma cells. The format is cell-based. The note with it: Homo sapiens, HT-1080, read-out: HT-1080 IC50.
Series [10] concerns GBM CSCs and non-diseased cells. The experiment in a line: MS-based metabolite identification of aYM155 activation in cells. The format is cell-based, human. Conditions: 100 nM, 24 hours.
The target of a further series is hERG channel (Homo sapiens, UniProt Q12809). The series is described as follows: hERG channel inhibition assay. The format is biochemical. Conditions: at 3 μM, highest tested concentration.
Chain of hERG channel (Q12809 whole entry): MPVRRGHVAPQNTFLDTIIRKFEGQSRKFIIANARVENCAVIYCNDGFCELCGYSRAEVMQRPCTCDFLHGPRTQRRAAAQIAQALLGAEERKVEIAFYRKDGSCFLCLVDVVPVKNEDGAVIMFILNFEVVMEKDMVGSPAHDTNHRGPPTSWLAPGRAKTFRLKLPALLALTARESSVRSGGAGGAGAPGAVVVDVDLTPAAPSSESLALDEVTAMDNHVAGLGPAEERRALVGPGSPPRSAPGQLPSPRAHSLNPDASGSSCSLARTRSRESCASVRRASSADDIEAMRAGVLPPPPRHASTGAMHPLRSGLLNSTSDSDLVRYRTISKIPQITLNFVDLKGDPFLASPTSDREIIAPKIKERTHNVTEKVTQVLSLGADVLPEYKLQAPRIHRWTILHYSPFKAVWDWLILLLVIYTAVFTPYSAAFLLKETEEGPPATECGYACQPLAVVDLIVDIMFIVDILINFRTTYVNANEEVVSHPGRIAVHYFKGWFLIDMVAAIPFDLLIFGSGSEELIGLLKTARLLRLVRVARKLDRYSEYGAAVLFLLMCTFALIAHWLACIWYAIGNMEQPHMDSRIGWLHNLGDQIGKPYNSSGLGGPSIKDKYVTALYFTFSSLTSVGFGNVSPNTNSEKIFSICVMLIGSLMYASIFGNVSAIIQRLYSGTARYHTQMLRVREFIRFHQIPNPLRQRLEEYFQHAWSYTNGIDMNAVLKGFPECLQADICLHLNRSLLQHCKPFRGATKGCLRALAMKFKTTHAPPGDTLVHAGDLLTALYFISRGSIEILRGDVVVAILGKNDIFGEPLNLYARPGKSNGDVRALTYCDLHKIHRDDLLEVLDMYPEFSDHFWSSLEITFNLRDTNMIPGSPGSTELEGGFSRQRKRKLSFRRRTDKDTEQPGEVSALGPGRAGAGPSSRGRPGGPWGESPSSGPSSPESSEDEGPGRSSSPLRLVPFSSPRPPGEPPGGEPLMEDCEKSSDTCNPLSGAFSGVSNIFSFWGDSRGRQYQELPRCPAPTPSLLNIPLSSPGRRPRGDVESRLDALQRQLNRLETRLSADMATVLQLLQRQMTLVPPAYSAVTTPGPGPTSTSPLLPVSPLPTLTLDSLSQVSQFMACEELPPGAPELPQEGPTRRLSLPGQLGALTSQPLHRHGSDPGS
In series [11] the test system is U87EGFRvIII intracranial xenografts. The series is described as follows: orthotopic intracranial GBM xenograft, tumor growth by FMT. The format is in vivo, athymic nude mice. The note with it: oral, 5mg/kg and 15 mg/kg, B.I.D.
Series [12] in a line: two-week mouse tolerability study. Format: in vivo. The note with it: oral, 1.0 and 5.0 mg/kg B.I.D., two weeks, naïve animals.
The next series has as its system survivin mRNA. Format: in vivo, athymic nude mice. The note with it: 1 hour after last dose of 9-day regimen.
Series [13] addresses T1, recombinant human full-length RIPK2. Conditions: read-out: apparent Kd for RIPK2; cited from earlier work.

As to `CC(=O)N(Cc1ccc(F)cc1)C1=C(NCc2ccccc2)C(=O)c2ccccc2C1=O` [RIPGBM], the IC50 is 400 nM with GBM-F (cell killing) and 200 nM in the series with GBM-A (cell killing, 72 hours).

Take `COCCn1c2c([n+](Cc3cnccn3)c1C)C(=O)c1ccccc1C2=O` [YM155, sepantronium bromide]: the IC50 in series [1] (Homo sapiens, Astrocyte, 72 h) was 5.1 nM; in the series with GBM-F (Homo sapiens, 72 h), 0.78 nM; in series [3] (Homo sapiens, 72 h) it was 5 nM; in series [5] (Homo sapiens), 5 nM; in the series with U118MG (Homo sapiens, U-118-MG) it was 3.7 nM; in the series on U87-EGFRvIII cells (24 h), 20 nM. For the same compound, the IC50 in the series with LN229 (Homo sapiens, LN-229, read-out: LN229 IC50) was determined as 2.8 nM; in series [8] (Homo sapiens, Fibroblast), 92 nM; in the series on GBM-A (Homo sapiens, 72 h), 4.5 nM; in series [9], 3.1 nM. Also, the “cell viability on loss of RIPK2” value with HT-1080 cells and in the series with U87-EGFRvIII cells (24 hours) was “significant rescue of cell viability” each time. Further, the “IKK activation (IκBα phosphorylation)” value in the series with IκBα phosphorylation is reported as “reduced IKK activation”. For the same compound, the Casp-1 activation result in the series on Casp-1 is listed as “time dependent activation of Casp-1”. Also, in the series with Survivin [2], the “survivin expression on RIPK2 knockdown” value is “significant rescue of survivin expression”. For the same compound, the “potency of inhibition of cRIPGBM-PAP RIPK2 labeling relative to cRIPGBM” value in [4] is on record as ~ 10 fold. In addition, in [4] (cRIPGBM-PAP 1 μM, at concentrations as low as 30nM), the “inhibition of UV-dependent covalent labeling of RIPK2 by cRIPGBM-PAP” value is on record as “at least 50%”. Also, the “concentration required to significantly impact survivin protein levels” value in the series on Survivin [6] (HT-1080 RIPK2 shRNA cells) is 100 nM. Moreover, in the series on Survivin [6] (HT-1080 non-targeting shRNA control cells), the “concentration giving significant reduction of survivin protein levels” value was found to be 10 nM. In addition, in the series with U87-EGFRvIII cells, the “sensitivity following shRNA-mediated RIPK1 knockdown” value is listed as “No significant differences in sensitivity”. For the same compound, the brain exposure result in [7] is given as “no brain exposure above limits of quantification”. Besides, the “Casp3/7 activation on SLC35F2 shRNA knockdown” value in the series on Casp-3/7 is listed as “ablated”. Also, the “Casp-3/7 activation in RIPK2 shRNA knockdown cells vs non-targeting control” value in the series with Casp-3/7 is recorded as “significantly reduced”. Also, the Casp-3/7 activation entry in the series with Casp-3/7 was “Casp-3/7 activation was observed”.

`COCCN(C(C)=O)C1=C(NCc2cnccn2)C(=O)c2ccccc2C1=O` [aYM155]: the “fold less potent compared to YM155” value in [1] (HA) was 12 fold; in [3] (NPC) it was 19 fold; in the series with GBM-A (GBM-A), 2.2 fold. In addition, the IC50 is 62 nM in series [1] (control cell type, 72 hours); 0.65 nM with GBM-F (cell killing, 72 hours); 97 nM in [3] (control cell type, 72 hours); 62 to 97 nM in series [5] (HA and NPC); 11 nM in the series on U118MG (hypo-MGMT methylated); 160 nM with U87-EGFRvIII cells (U87-EGFRvIII cells, 24 hours). The IC50 with LN229 (read-out: LN229 IC50, hyper-MGMT methylated) came out at 12 nM; in [8] (control cell type), 2000 nM; in the series on GBM-A (cell killing, 72 hours), 10 nM. Moreover, the “cell viability on loss of RIPK2” value in the series on HT-1080 cells and in the series with U87-EGFRvIII cells (24 hours) was “significant rescue of cell viability” in each case. Moreover, in series [10], the “rates of conversion to YM155 in GBM CSC populations compared to non-transformed control cell types” value was “significantly higher”. In addition, on hERG channel, the hERG channel inhibition is given as less than 20%. Further, in the series on GBM-F (GBM-F), the “potency compared to YM155” value was “~ equivalent”. Further, the “tumor growth by FMT imaging” value in series [11] is given as “significant inhibition of tumor growth”. The “sensitivity following shRNA-mediated RIPK1 knockdown” value with U87-EGFRvIII cells is on record as “No significant differences in sensitivity”. In addition, in series [7], the “brain Cmax” value is 32 nM. The brain/plasma concentration ratio in [7] was determined as 0.56. The “tolerability (weight loss and behavioral observations)” value in series [12] is “well tolerated”. Besides, in the series with Casp-3/7, the “Casp3/7 activation on SLC35F2 shRNA knockdown” value was “ablated”. The “Casp-3/7 activation in RIPK2 shRNA knockdown cells vs non-targeting control” value in the series with Casp-3/7 was “significantly reduced”. In the series on Casp-3/7, the Casp-3/7 activation result is “Casp-3/7 activation was observed”. In addition, the “survivin expression levels in human tumor tissue” value in the series on survivin mRNA (5 and 15 mg/kg B.I.D.) was “significantly decrease survivin expression levels”. Moreover, the “survivin expression in normal brain tissue” value in the series with survivin mRNA is on record as “no effect”.

Turning to `Cc1n(Cc2ccc(N=[N+]=[N-])cc2)c2c([n+]1CCOCCOCCNC(=O)CCCC[C@@H]1SC[C@@H]3NC(=O)N[C@@H]31)C(=O)c1ccccc1C2=O` [cRIPGBM-PAP], in [13], the Kd is 2300 nM.

Consider `Cc1n(Cc2ccc(F)cc2)c2c([n+]1Cc1ccccc1)C(=O)c1ccccc1C2=O` [cRIPGBM], for which the IC50 stood at 70 nM with GBM-F (cell killing) and 27 nM in the series with GBM-A (cell killing, 72 hours).
